Results as given in PMC11187126, “Structure and dynamics of the pyroglutamylated RF-amide peptide QRFP receptor GPR103” (Nature Communications, 2024).
Read-outs that look alike come from different tables or passages of the source. No end group written: not given here.

Molecular target: T1, GPR103 F11N-termA (Homo sapiens, UniProt Q96P65, F11A)
T1 construct: we used human full-length QRFPR-encoding plasmids; expressed in transfected cells; host or cells: HEK293 cells, pCAGGS vector
T1 sequence (Q96P65 1-431 F11A): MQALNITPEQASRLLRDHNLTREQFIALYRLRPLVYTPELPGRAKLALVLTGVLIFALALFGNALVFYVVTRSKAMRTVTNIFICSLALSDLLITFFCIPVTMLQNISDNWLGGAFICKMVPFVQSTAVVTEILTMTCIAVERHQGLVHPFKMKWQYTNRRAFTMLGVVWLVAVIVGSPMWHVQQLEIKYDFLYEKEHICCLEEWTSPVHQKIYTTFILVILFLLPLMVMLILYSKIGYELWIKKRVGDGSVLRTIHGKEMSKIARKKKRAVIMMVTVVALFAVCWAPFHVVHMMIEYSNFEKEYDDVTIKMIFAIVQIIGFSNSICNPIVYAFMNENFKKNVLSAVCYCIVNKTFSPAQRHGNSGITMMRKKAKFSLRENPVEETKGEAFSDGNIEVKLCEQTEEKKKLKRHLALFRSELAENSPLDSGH
Assay: TGFα shedding assay; Exp. level WT (1:10)
Format: cell-based
Procedure: For the TGFα shedding assay and the flow cytometry analysis, we used human full-length QRFPR-encoding plasmids. Specifically, GPR103 was N-terminally modified with an HA signal sequence followed by a FLAG epitope and then a flexible linker ([…]; the FLAG epitope is underlined) and inserted into the pCAGGS vector. Plasmid encoding GPR103 mutants were generated using Quickchange Site-Directed Mutagensis kit (Agilent).
The TGFα shedding assay was performed as described previously with minor modifications. Plasmid transfection was performed in a 6-well plate with a mixture of 500 ng (per well in a 6-well plate) AP-TGFα-encoding plasmid and 200 ng GPR103-encoding plasmid. After 1-day culture, the transfected cells were harvested by trypsinization, pelleted by centrifugation at 190 × g for 5 min, and washed once with 5 mM HEPES (pH 7.4)-containing Hank’s Balanced Salt Solution (HBSS). After centrifugation, the cells were resuspended in 8 mL of the HEPES-containing HBSS. The cell suspension was seeded in a 96-well culture plate (cell plate) at a volume of 90 μL (per well hereafter) and incubated in a 37 °C incubator with 5% CO2 for 30 min. […] After spinning the cell plates at 190 × g for 2 min, 80 μL of conditioned media was transferred to an empty 96-well plate (conditioned media (CM) plate). Then, 80 μL of AP reaction solution (10 mM p-nitrophenylphosphate (p-NPP), 120 mM Tris-HCl (pH 9.5), 40 mM NaCl, and 10 mM MgCl2) was dispensed into the cell plates and the CM plates. Absorbance at 405 nm of the plates was measured using a microplate reader (SpectraMax 340 PC384, Molecular Devices) before and after 1-h incubation at room temperature. Ligand-induced AP-TGFα release was calculated by subtracting spontaneous AP-TGFα release signal from ligand-induced AP-TGFα release signal. The AP-TGFα release signals were fitted to a four-parameter sigmoidal concentration–response curve, using the Prism 10 software (GraphPad Prism). For each replicate experiment, the pEC50 parameter (negative logarithmic values of EC50 values) of the individual GPR103 mutants were normalized to that of the wild-type GPR103 performed in parallel, and resulting ∆pEC50 values were used to denote ligand response activity of the mutants. […]
Exp. le vel: WT (1:5 0)Exp. le vel: WT (1:5 0)Exp. le vel: WT (1:5 0)Exp. le vel: WT (1:2 0)Exp. le vel: WT (1:2 0)Exp. le vel: WT (1:1 0) […]
L1 4N - t e r mA F2 5N - t e r mA I 2 6N - t e r mA Y 2 9N - t e r mA C 9 82 .5 7A T10 22 .6 1A Exp . l eve l: WT (1 :5)Exp . l evel : >WT (1 :1)Exp. le vel: WT (1:2 0)Exp. le vel: WT (1:2 0)Exp. le vel: WT (1:5 0)Exp . l eve l: WT (1 :1) […]
Exp. le vel: WT (1:1 0)Exp. le vel: WT (1:2 0) C 1 1 83 .2 5AExp. le vel: WT (1:5 0)Exp. le vel: WT (1:5 0)Exp. le vel: WT (1:2 0)Exp . l eve l: WT (1 :5) […]
Exp. le vel: WT (1:5 0)Exp. le vel: WT (1:1 0)Exp. le vel: WT (1:5 0) E203ECL2AExp . l evel : >WT (1 :1)Exp. le vel: WT (1:5 0)Exp. le vel: WT (1:5 0) […]
Exp . l eve l: WT (1 :1) F28Exp. le vel: WT (1:5 0) C 2 8 56 .4 7AExp. le vel: WT (1:2 0) WExp. le vel: WT (1:2 0) F28Exp. le vel: WT (1:5 0)Exp . l evel : >WT (1 :1) […]
Exp. le vel: WT (1:5 0)Exp. le vel: WT (1:5 0) C 3 2 77 .4 8AExp . l eve l: WT (1 :5)Exp . l evel : >WT (1 :1)Exp . l evel : >WT (1 :1) […]
Suppl eme nt ary Figure 1 | Mutational analysis of GPR103. […]
mutants. Data are presented as mean values ± SEM, normally n=3-5; dots), each performed in triplicate. b-d Cell-surface expression (b) and QRFP26-in-duced activation of GPR103 (c, d) were analyzed by the flow cytometry and the TGFα shedding assay, respectively. From the concentration–response curves (a), Emax (c) and ΔpEC50 (d) values relative to the wild type were calculated. Colors in the mutant bars indicate an expression level matching to that of titrated wild type. Statistical analyses were performed using the ordinary one-way ANOVA followed by Dunnett tests with the expression-matched […]

TSGPLGNLAEELNGYSRKKGGFSFRF-NH2 [QRFP26]
Emax (Exp. #1): 103.83 % WT | Emax (Exp. #2): 92.88 % WT | Emax (Exp. #3): 104.15 % WT | Emax (mean, read-out: Emax): 100% | EC50 (n = 3): 178 nM | Emax (n = 3, read-out: Emax): 104 ± 3%
